# Reference: ChEMBL document CHEMBL4400520, “Benzofuran-isatin-imine hybrids tethered via different length alkyl linkers: Design, synthesis and in vitro evaluation of anti-tubercular and anti-bacterial activities as well as cytotoxicity” (Eur J Med Chem, 2019)
# How the values were obtained:
# [1] = test system: Acinetobacter calcoaceticus; assay: Antibacterial activity against Acinetobacter calcoaceticus; type: functional
# [2] = test system: Pseudomonas aeruginosa; assay: Antibacterial activity against Pseudomonas aeruginosa ATCC 27853; type: functional
# [3] = Cytotoxicity against African green monkey Vero cells assessed as reduction in cell viability after 72 hrs by MTT assay; type: cell-based; conditions: chlorocebus sabaeus, Vero cells
# [4] = test system: Enterococcus faecium; assay: Antibacterial activity against Enterococcus faecium; type: functional
# [5] = test system: Staphylococcus epidermidis; assay: Antibacterial activity against methicillin-sensitive Staphylococcus epidermidis; type: functional
# [6] = test system: Citrobacter freundii; assay: Antibacterial activity against Citrobacter freundii; type: functional
# [7] = test system: Escherichia coli; assay: Antibacterial activity against Escherichia coli; type: functional
# [8] = test system: Enterococcus faecalis; assay: Antibacterial activity against Enterococcus faecalis; type: functional
# [9] = test system: Staphylococcus epidermidis; assay: Antibacterial activity against methicillin-resistant Staphylococcus epidermidis; type: functional
# [10] = test system: Klebsiella aerogenes; assay: Antibacterial activity against Enterobacter aerogenes; type: functional
# [11] = test system: Staphylococcus aureus; assay: Antibacterial activity against methicillin-resistant Staphylococcus aureus; type: functional
# [12] = test system: Enterobacter cloacae; assay: Antibacterial activity against Enterobacter cloacae; type: functional
# [13] = test system: Mycobacterium tuberculosis; assay: Antitubercular activity against Mycobacterium tuberculosis H37Rv; type: functional
# [14] = test system: Klebsiella pneumoniae; assay: Antibacterial activity against Klebsiella pneumoniae; type: functional
# [15] = test system: Proteus mirabilis; assay: Antibacterial activity against Proteus mirabilis; type: functional
# [16] = test system: Staphylococcus aureus; assay: Antibacterial activity against methicillin-sensitive Staphylococcus aureus; type: functional
# [17] = Selectivity index, ratio of CC50 for African green monkey Vero cells to MIC for Mycobacterium tuberculosis H37Rv; type: toxicity; conditions: read-out: Selectivity Index
Compound,MIC90 [1] [µg/mL],MIC90 [2] [µg/mL],CC50 at 72 h [3] [µg/mL],MIC90 [4] [µg/mL],MIC90 [5] [µg/mL],MIC90 [6] [µg/mL],MIC90 [7] [µg/mL],MIC90 [8] [µg/mL],MIC90 [9] [µg/mL],MIC90 [10] [µg/mL],MIC90 [11] [µg/mL],MIC90 [12] [µg/mL],MIC [13] [µg/mL],MIC90 [14] [µg/mL],MIC90 [15] [µg/mL],MIC90 [16] [µg/mL],selectivity ratio [17]
CCOC(=O)c1c(-c2ccc(OC)cc2)oc2ccc(OCCCCCCN3C(=O)/C(=N\NC(N)=S)c4cc(F)ccc43)cc12,16,4,8,32,0.5,0.25,0.125,1,2,2,1,0.5,< 0.016,1,1,1,> 500
CCOC(=O)c1c(-c2ccc(OC)cc2)oc2ccc(OCCCCCCN3C(=O)/C(=N\OC)c4cc(F)ccc43)cc12,4,8,16,16,0.5,0.5,0.25,2,16,0.5,4,0.5,< 0.016,2,0.125,4,> 1000
CCOC(=O)c1c(-c2ccc(OC)cc2)oc2ccc(OCCCCCCN3C(=O)/C(=N\OC)c4ccccc43)cc12,4,2,32,16,0.5,0.125,0.125,4,8,0.25,2,0.125,< 0.016,4,0.125,2,> 2000
CCO/N=C1\C(=O)N(CCCCOc2ccc3oc(-c4ccc(OC)cc4)c(C(=O)OCC)c3c2)c2ccccc21,0.5,2,64,64,0.5,2,1,4,2,2,1,1,< 0.016,2,2,1,> 4000
CCO/N=C1\C(=O)N(CCCCCOc2ccc3oc(-c4ccc(OC)cc4)c(C(=O)OCC)c3c2)c2ccc(F)cc21,8,4,32,32,1,0.125,0.125,4,4,0.5,4,0.25,0.031,4,0.25,8,1030
CCOC(=O)c1c(-c2ccc(OC)cc2)oc2ccc(OCCCCCN3C(=O)/C(=N\O)c4ccccc43)cc12,2,4,64,8,0.25,0.5,0.25,2,4,0.5,2,1,0.062,1,0.25,2,1030
CCOC(=O)c1c(-c2ccc(F)cc2)oc2ccc(OCCCCCCN3C(=O)/C(=N\OC)c4cc(F)ccc43)cc12,4,2,16,8,0.25,0.125,0.5,1,8,0.25,1,0.25,0.218,2,0.125,2,73
NNC(=O)c1ccncc1 [ISONIAZID],,,256,,,,,,,,,,0.078,,,,3280
CO[C@H]1/C=C/O[C@@]2(C)Oc3c(C)c(O)c4c(O)c(c(/C=N/N5CCN(C)CC5)c(O)c4c3C2=O)NC(=O)/C(C)=C\C=C\[C@H](C)[C@H](O)[C@@H](C)[C@@H](O)[C@@H](C)[C@H](OC(C)=O)[C@@H]1C [RIFAMPIN],,,,,,,,,,,,,0.078,,,,6560
CN[C@H](CC(C)C)C(=O)N[C@H]1C(=O)N[C@@H](CC(N)=O)C(=O)N[C@H]2C(=O)N[C@H]3C(=O)N[C@H](C(=O)N[C@H](C(=O)O)c4cc(O)cc(O)c4-c4cc3ccc4O)[C@H](O)c3ccc(c(Cl)c3)Oc3cc2cc(c3O[C@@H]2O[C@H](CO)[C@@H](O)[C@H](O)[C@H]2O[C@H]2C[C@](C)(N)[C@H](O)[C@H](C)O2)Oc2ccc(cc2Cl)[C@H]1O [VANCOMYCIN],,,,1,1,,,4,1,,1,,,,,0.5,
